Reference: ChEMBL document CHEMBL1201861, “Genomics of Drug Sensitity in Cancer screening data, Wellcome Trust Sanger Institute”
“And” between values parts separate entries of the source, which are not always exact repeats. Equal entries are not always repeated. Where a SMILES comes first, the peptide text is derived from it. The star is where a group is joined. Cbz = O=C(OCc1ccccc1)*

Assays:
U-698-M = assay: cells; assay type: functional, cell-based, Homo sapiens
Description: SANGER: Inhibition of human U-698-M cell growth in a cell viability assay.

ST486 = assay: SANGER: Inhibition of human ST486 cell growth in a cell viability assay.; assay type: functional, cell-based
DG-75 = assay: cells; assay type: functional, cell-based, Homo sapiens
Description: SANGER: Inhibition of human DG-75 cell growth in a cell viability assay.

NCI-H1522 = assay: cells; assay type: functional, cell-based, Homo sapiens
Description: SANGER: Inhibition of human NCI-H1522 cell growth in a cell viability assay.

LB373-MEL-D = assay: cells; assay type: functional, cell-based, Homo sapiens
Description: SANGER: Inhibition of human LB373-MEL-D cell growth in a cell viability assay.

EB2 = assay: cells; assay type: functional, cell-based, Homo sapiens
Description: SANGER: Inhibition of human EB2 cell growth in a cell viability assay.

THP-1 = assay: cells; assay type: functional, cell-based, Homo sapiens
Description: SANGER: Inhibition of human THP-1 cell growth in a cell viability assay.

SU-DHL-1 = assay: SANGER: Inhibition of human SU-DHL-1 cell growth in a cell viability assay.; assay type: functional, cell-based
EHEB = assay: cells; assay type: functional, cell-based; settings: Homo sapiens
Description: SANGER: Inhibition of human EHEB cell growth in a cell viability assay.

TE-15 = assay: cells; assay type: functional, cell-based, Homo sapiens
Description: SANGER: Inhibition of human TE-15 cell growth in a cell viability assay.

NCI-H322M = assay: cells; assay type: functional, cell-based, Homo sapiens
Description: SANGER: Inhibition of human NCI-H322M cell growth in a cell viability assay.

BL-70 = assay: SANGER: Inhibition of human BL-70 cell growth in a cell viability assay.; assay type: functional, cell-based
BL-41 = assay: cells; assay type: functional, cell-based; settings: Homo sapiens
Description: SANGER: Inhibition of human BL-41 cell growth in a cell viability assay.

DMS-79 = assay: cells; assay type: functional, cell-based, Homo sapiens
Description: SANGER: Inhibition of human DMS-79 cell growth in a cell viability assay.

NCI-H524 = assay: cells; assay type: functional, cell-based, Homo sapiens
Description: SANGER: Inhibition of human NCI-H524 cell growth in a cell viability assay.

BOKU = assay: cells; assay type: functional, cell-based; settings: Homo sapiens
Description: SANGER: Inhibition of human BOKU cell growth in a cell viability assay.

WSU-NHL = assay: cells; assay type: functional, cell-based, Homo sapiens
Description: SANGER: Inhibition of human WSU-NHL cell growth in a cell viability assay.

NCI-H1417 = assay: cells; assay type: functional, cell-based, Homo sapiens
Description: SANGER: Inhibition of human NCI-H1417 cell growth in a cell viability assay.

RL = assay: cells; assay type: functional, cell-based, Homo sapiens
Description: SANGER: Inhibition of human RL cell growth in a cell viability assay.

COLO-679 = assay: cells; assay type: functional, cell-based; settings: Homo sapiens
Description: SANGER: Inhibition of human COLO-679 cell growth in a cell viability assay.

UACC-893 = assay: cells; assay type: functional, cell-based; settings: Homo sapiens
Description: SANGER: Inhibition of human UACC-893 cell growth in a cell viability assay.

SKG-IIIa = assay: cells; assay type: functional, cell-based; settings: Homo sapiens
Description: SANGER: Inhibition of human SKG-IIIa cell growth in a cell viability assay.

MHH-ES-1 = assay: cells; assay type: functional, cell-based; settings: Homo sapiens
Description: SANGER: Inhibition of human MHH-ES-1 cell growth in a cell viability assay.

U2OS = assay: cells; assay type: functional, cell-based, U-2-OS; settings: Homo sapiens
Description: SANGER: Inhibition of human U-2-OS cell growth in a cell viability assay.

786-0 = assay: cells; assay type: functional, cell-based; settings: Homo sapiens
Description: SANGER: Inhibition of human 786-0 cell growth in a cell viability assay.

NCI-H2170 = assay: cells; assay type: functional, cell-based; settings: Homo sapiens
Description: SANGER: Inhibition of human NCI-H2170 cell growth in a cell viability assay.

SAS = assay: cells; assay type: functional, cell-based; settings: Homo sapiens
Description: SANGER: Inhibition of human SAS cell growth in a cell viability assay.

COR-L23 = assay: cells; assay type: functional, cell-based; settings: Homo sapiens
Description: SANGER: Inhibition of human COR-L23 cell growth in a cell viability assay.

PFSK-1 = assay: cells; assay type: functional, cell-based; settings: Homo sapiens
Description: SANGER: Inhibition of human PFSK-1 cell growth in a cell viability assay.

769-P = assay: cells; assay type: functional, cell-based; settings: Homo sapiens
Description: SANGER: Inhibition of human 769-P cell growth in a cell viability assay.

LU-99A = assay: cells; assay type: functional, cell-based; settings: Homo sapiens
Description: SANGER: Inhibition of human LU-99A cell growth in a cell viability assay.

639-V = assay: cells; assay type: functional, cell-based; settings: Homo sapiens
Description: SANGER: Inhibition of human 639-V cell growth in a cell viability assay.

KP-N-YN = assay: cells; assay type: functional, cell-based; settings: Homo sapiens
Description: SANGER: Inhibition of human KP-N-YN cell growth in a cell viability assay.

COLO-792 = assay: cells; assay type: functional, cell-based; settings: Homo sapiens
Description: SANGER: Inhibition of human COLO-792 cell growth in a cell viability assay.

NCI-H1693 = assay: cells; assay type: functional, cell-based; settings: Homo sapiens
Description: SANGER: Inhibition of human NCI-H1693 cell growth in a cell viability assay.

C-33-A = assay: cells; assay type: functional, cell-based; settings: Homo sapiens
Description: SANGER: Inhibition of human C-33-A cell growth in a cell viability assay.

HuP-T4 = assay: cells; assay type: functional, cell-based; settings: Homo sapiens
Description: SANGER: Inhibition of human HuP-T4 cell growth in a cell viability assay.

YAPC = assay: cells; assay type: functional, cell-based; settings: Homo sapiens
Description: SANGER: Inhibition of human YAPC cell growth in a cell viability assay.

A-431 = assay: cells; assay type: functional, cell-based; settings: Homo sapiens
Description: SANGER: Inhibition of human A431 cell growth in a cell viability assay.

OAW-28 = assay: cells; assay type: functional, cell-based; settings: Homo sapiens
Description: SANGER: Inhibition of human OAW-28 cell growth in a cell viability assay.

MDA-MB-157 = assay: cells; assay type: functional, cell-based; settings: Homo sapiens
Description: SANGER: Inhibition of human MDA-MB-157 cell growth in a cell viability assay.

HCC1806 = assay: cells; assay type: functional, cell-based; settings: Homo sapiens
Description: SANGER: Inhibition of human HCC1806 cell growth in a cell viability assay.

Capan-2 = assay: cells; assay type: functional, cell-based; settings: Homo sapiens
Description: SANGER: Inhibition of human Capan-2 cell growth in a cell viability assay.

A-375 = assay: cells; assay type: functional, cell-based; settings: Homo sapiens
Description: SANGER: Inhibition of human A375 cell growth in a cell viability assay.

COLO-680N = assay: cells; assay type: functional, cell-based; settings: Homo sapiens
Description: SANGER: Inhibition of human COLO-680N cell growth in a cell viability assay.

HEC-1 = assay: cells; assay type: functional, cell-based; settings: Homo sapiens
Description: SANGER: Inhibition of human HEC-1 cell growth in a cell viability assay.

LoVo = assay: cells; assay type: functional, cell-based; settings: Homo sapiens
Description: SANGER: Inhibition of human LoVo cell growth in a cell viability assay.

SW626 = assay: cells; assay type: functional, cell-based; settings: Homo sapiens
Description: SANGER: Inhibition of human SW626 cell growth in a cell viability assay.

KU-19-19 = assay: cells; assay type: functional, cell-based; settings: Homo sapiens
Description: SANGER: Inhibition of human KU-19-19 cell growth in a cell viability assay.

PC-14 = assay: cells; assay type: functional, cell-based; settings: Homo sapiens
Description: SANGER: Inhibition of human PC-14 cell growth in a cell viability assay.

CaR-1 = assay: cells; assay type: functional, cell-based; settings: Homo sapiens
Description: SANGER: Inhibition of human CaR-1 cell growth in a cell viability assay.

KYSE-520 cell line = assay: cells; assay type: functional, cell-based; settings: Homo sapiens
Description: SANGER: Inhibition of human KYSE-520 cell growth in a cell viability assay.

HCC 2998 = assay: cells; assay type: functional, cell-based; settings: Homo sapiens
Description: SANGER: Inhibition of human HCC2998 cell growth in a cell viability assay.

SW1710 = assay: cells; assay type: functional, cell-based; settings: Homo sapiens
Description: SANGER: Inhibition of human SW1710 cell growth in a cell viability assay.

SBC-5 = assay: cells; assay type: functional, cell-based; settings: Homo sapiens
Description: SANGER: Inhibition of human SBC-5 cell growth in a cell viability assay.

HLE = assay: cells; assay type: functional, cell-based; settings: Homo sapiens
Description: SANGER: Inhibition of human HLE cell growth in a cell viability assay.

Huh-7 = assay: cells; assay type: functional, cell-based; settings: Homo sapiens
Description: SANGER: Inhibition of human HuH-7 cell growth in a cell viability assay.

CAL-39 = assay: cells; assay type: functional, cell-based; settings: Homo sapiens
Description: SANGER: Inhibition of human CAL-39 cell growth in a cell viability assay.

OE33 = assay: cells; assay type: functional, cell-based; settings: Homo sapiens
Description: SANGER: Inhibition of human OE33 cell growth in a cell viability assay.

## C=CC(=O)N1CCCC(Nc2nc(Nc3ccc(N(C)C(=O)CC)cc3)nc3[nH]cnc23)C1 (stereo not given)
U-698-M; Homo sapiens, U-698-M
  IC50: > 10200 nM
ST486; Homo sapiens, ST486
  IC50: > 10200 nM
DG-75; Homo sapiens, DG-75
  IC50: > 10200 nM
NCI-H1522; Homo sapiens, NCI-H1522
  IC50: > 10200 nM
LB373-MEL-D; Homo sapiens, LB373-MEL-D
  IC50: > 10200 nM
EB2; Homo sapiens, EB2
  IC50: > 10200 nM
THP-1; Homo sapiens, THP-1
  IC50: > 10200 nM
SU-DHL-1; Homo sapiens, SU-DHL-1
  IC50: > 10200 nM
EHEB
  IC50: > 10200 nM
TE-15; Homo sapiens, TE-15
  IC50: 1850 nM
NCI-H322M; Homo sapiens, NCI-H322M
  IC50: > 10200 nM
BL-70; Homo sapiens, BL-70
  IC50: > 10200 nM
BL-41
  IC50: > 10200 nM
DMS-79; Homo sapiens, DMS-79
  IC50: > 10200 nM
NCI-H524; Homo sapiens, NCI-H524
  IC50: > 10200 nM
BOKU
  IC50: > 10200 nM
WSU-NHL; Homo sapiens, WSU-NHL
  IC50: > 10200 nM
NCI-H1417; Homo sapiens, NCI-H1417
  IC50: > 10200 nM
RL; Homo sapiens, RL
  IC50: > 10200 nM

## Cc1ccc(NC(=O)c2ccc(CN3CCN(C)CC3)cc2)cc1Nc1nccc(-c2cccnc2)n1 [IMATINIB]
U-698-M; Homo sapiens, U-698-M
  IC50: > 2000 nM
ST486; Homo sapiens, ST486
  IC50: 685 nM
DG-75; Homo sapiens, DG-75
  IC50: > 2000 nM
NCI-H1522; Homo sapiens, NCI-H1522
  IC50: > 2000 nM
LB373-MEL-D; Homo sapiens, LB373-MEL-D
  IC50: > 2000 nM
EB2; Homo sapiens, EB2
  IC50: > 2000 nM
THP-1; Homo sapiens, THP-1
  IC50: > 2000 nM
SU-DHL-1; Homo sapiens, SU-DHL-1
  IC50: > 2000 nM
EHEB
  IC50: > 2000 nM
TE-15; Homo sapiens, TE-15
  IC50: > 2000 nM
NCI-H322M; Homo sapiens, NCI-H322M
  IC50: > 2000 nM
BL-70; Homo sapiens, BL-70
  IC50: > 2000 nM
BL-41
  IC50: > 2000 nM
DMS-79; Homo sapiens, DMS-79
  IC50: > 2000 nM
NCI-H524; Homo sapiens, NCI-H524
  IC50: > 2000 nM
BOKU
  IC50: > 2000 nM
WSU-NHL; Homo sapiens, WSU-NHL
  IC50: > 2000 nM
NCI-H1417; Homo sapiens, NCI-H1417
  IC50: > 2000 nM
RL; Homo sapiens, RL
  IC50: > 2000 nM

## COc1ccc(N(C(=O)Oc2c(C)cccc2C)c2ccnc(Nc3ccc(N4CCN(C)CC4)cc3)n2)c(OC)c1
U-698-M; Homo sapiens, U-698-M
  IC50: > 5120 nM
ST486; Homo sapiens, ST486
  IC50: > 5120 nM
DG-75; Homo sapiens, DG-75
  IC50: > 5120 nM
NCI-H1522; Homo sapiens, NCI-H1522
  IC50: > 5120 nM
LB373-MEL-D; Homo sapiens, LB373-MEL-D
  IC50: > 5120 nM
EB2; Homo sapiens, EB2
  IC50: > 5120 nM
THP-1; Homo sapiens, THP-1
  IC50: > 5120 nM
SU-DHL-1; Homo sapiens, SU-DHL-1
  IC50: > 5120 nM
EHEB
  IC50: > 5120 nM
TE-15; Homo sapiens, TE-15
  IC50: 243 nM
NCI-H322M; Homo sapiens, NCI-H322M
  IC50: > 5120 nM
BL-70; Homo sapiens, BL-70
  IC50: < 20 nM
BL-41
  IC50: 1000 nM
DMS-79; Homo sapiens, DMS-79
  IC50: > 5120 nM
NCI-H524; Homo sapiens, NCI-H524
  IC50: > 5120 nM
BOKU
  IC50: 1810 nM
WSU-NHL; Homo sapiens, WSU-NHL
  IC50: > 5120 nM
NCI-H1417; Homo sapiens, NCI-H1417
  IC50: > 5120 nM
RL; Homo sapiens, RL
  IC50: > 5120 nM

## CC1(C)CCC(c2ccc(Cl)cc2)=C(CN2CCN(c3ccc(C(=O)NS(=O)(=O)c4ccc(N[C@H](CCN5CCOCC5)CSc5ccccc5)c(S(=O)(=O)C(F)(F)F)c4)cc3)CC2)C1 [NAVITOCLAX]
COLO-679
  IC50: > 2000 nM
UACC-893
  IC50: > 2000 nM
SKG-IIIa
  IC50: > 2000 nM
MHH-ES-1
  IC50: > 2000 nM
U2OS
  IC50: > 2000 nM
786-0
  IC50: > 2000 nM
NCI-H2170
  IC50: 1060 nM
SAS
  IC50: > 2000 nM
COR-L23
  IC50: 1800 nM
PFSK-1
  IC50: > 2000 nM
769-P
  IC50: > 2000 nM
LU-99A
  IC50: > 2000 nM
639-V
  IC50: > 2000 nM
KP-N-YN
  IC50: 236 nM
COLO-792
  IC50: 1200 nM
NCI-H1693
  IC50: > 2000 nM
C-33-A
  IC50: > 2000 nM
HuP-T4
  IC50: > 2000 nM
YAPC
  IC50: > 2000 nM
A-431
  IC50: > 2000 nM
OAW-28
  IC50: 784 nM
MDA-MB-157
  IC50: > 2000 nM
HCC1806
  IC50: > 2000 nM
Capan-2
  IC50: > 2000 nM
A-375
  IC50: > 2000 nM
COLO-680N
  IC50: > 2000 nM
HEC-1
  IC50: > 2000 nM
LoVo
  IC50: > 2000 nM
SW626
  IC50: > 2000 nM
KU-19-19
  IC50: > 2000 nM
PC-14
  IC50: > 2000 nM
CaR-1
  IC50: > 2000 nM
KYSE-520 cell line
  IC50: > 2000 nM
HCC 2998
  IC50: 1070 nM
SW1710
  IC50: > 2000 nM
SBC-5
  IC50: > 2000 nM
HLE
  IC50: > 2000 nM
Huh-7
  IC50: 1670 nM
CAL-39
  IC50: > 2000 nM
OE33
  IC50: > 2000 nM

## CC(C)C[C@@H](C=O)NC(=O)[C@H](CC(C)C)NC(=O)[C@H](CC(C)C)NC(=O)OCc1ccccc1 [MG-132] (Cbz-Leu-Leu-Leu-aldehyde)
U-698-M; u-698-m
  IC50: > 1000 nM
ST486; Homo sapiens, ST486
  IC50: > 1000 nM
ST486; st486
  IC50: > 1000 nM
DG-75; Homo sapiens, DG-75
  IC50: > 1000 nM
DG-75; dg-75
  IC50: > 1000 nM
NCI-H1522; nci-h1522
  IC50: > 1000 nM
LB373-MEL-D; lb373-mel-d
  IC50: 242 nM and > 1000 nM
KP-N-YN
  IC50: > 1000 nM
EB2; eb2
  IC50: > 1000 nM
THP-1; thp-1
  IC50: > 1000 nM
SU-DHL-1; su-dhl-1
  IC50: > 1000 nM
EHEB
  IC50: > 1000 nM
TE-15; te-15
  IC50: > 1000 nM
NCI-H322M; nci-h322m
  IC50: > 1000 nM
BL-70; bl-70
  IC50: 694 nM and > 1000 nM
DMS-79; dms-79
  IC50: > 1000 nM
NCI-H524; Homo sapiens, NCI-H524
  IC50: > 1000 nM
NCI-H524; nci-h524
  IC50: > 1000 nM
BOKU
  IC50: > 1000 nM
HCC 2998
  IC50: 939 nM
WSU-NHL; wsu-nhl
  IC50: > 1000 nM
NCI-H1417; nci-h1417
  IC50: > 1000 nM
RL; rl
  IC50: > 1000 nM
